Active and inactive are the calls of the source.
Legend:
Candida albicans [1] = test: fluconazole-resistant Candida strain growth inhibitors – CaCi-8 strain, dry powder, set 4, dose response (AID 488950); assay type: functional, organism-based
Candida albicans [2] = test: C. albicans growth inhibition with fluconazole – CaCi-2 strain, Alamar Blue, dry powder, set 4, dose response (AID 488943); assay type: functional, organism-based
Candida albicans [3] = test: antifungal activity against resistant Candida strain – CaCi-8, fluconazole, Alamar Blue, dry powder, dose response (AID 488807); assay type: functional, organism-based
Candida albicans [4] = test: Candida growth effect without fluconazole – C. albicans CaCi-2, dry powder, counter-screen for antifungal drug resistance project, dose response (AID 488802); assay type: functional, organism-based
[5] = target: G-protein coupled receptor 55 (Homo sapiens, UniProt Q9Y2T6); test: selective activators of receptor GPR55 – imaging, U2OS cells, beta-arrestin-GFP redistribution, primary screen (AID 1961); assay type: functional
Hexokinase-1 = Hexokinase-1 (Homo sapiens, UniProt P19367); test: SAR analysis of small molecule inhibitors of hexokinase domain containing I (HKDC1) in the hexokinase 1 selectivity assay. [Related pubchem assays (depositor defined):AID493160, AID493190]; assay type: functional
Sequence of Hexokinase-1 (P19367 whole entry, the tested form may be a part): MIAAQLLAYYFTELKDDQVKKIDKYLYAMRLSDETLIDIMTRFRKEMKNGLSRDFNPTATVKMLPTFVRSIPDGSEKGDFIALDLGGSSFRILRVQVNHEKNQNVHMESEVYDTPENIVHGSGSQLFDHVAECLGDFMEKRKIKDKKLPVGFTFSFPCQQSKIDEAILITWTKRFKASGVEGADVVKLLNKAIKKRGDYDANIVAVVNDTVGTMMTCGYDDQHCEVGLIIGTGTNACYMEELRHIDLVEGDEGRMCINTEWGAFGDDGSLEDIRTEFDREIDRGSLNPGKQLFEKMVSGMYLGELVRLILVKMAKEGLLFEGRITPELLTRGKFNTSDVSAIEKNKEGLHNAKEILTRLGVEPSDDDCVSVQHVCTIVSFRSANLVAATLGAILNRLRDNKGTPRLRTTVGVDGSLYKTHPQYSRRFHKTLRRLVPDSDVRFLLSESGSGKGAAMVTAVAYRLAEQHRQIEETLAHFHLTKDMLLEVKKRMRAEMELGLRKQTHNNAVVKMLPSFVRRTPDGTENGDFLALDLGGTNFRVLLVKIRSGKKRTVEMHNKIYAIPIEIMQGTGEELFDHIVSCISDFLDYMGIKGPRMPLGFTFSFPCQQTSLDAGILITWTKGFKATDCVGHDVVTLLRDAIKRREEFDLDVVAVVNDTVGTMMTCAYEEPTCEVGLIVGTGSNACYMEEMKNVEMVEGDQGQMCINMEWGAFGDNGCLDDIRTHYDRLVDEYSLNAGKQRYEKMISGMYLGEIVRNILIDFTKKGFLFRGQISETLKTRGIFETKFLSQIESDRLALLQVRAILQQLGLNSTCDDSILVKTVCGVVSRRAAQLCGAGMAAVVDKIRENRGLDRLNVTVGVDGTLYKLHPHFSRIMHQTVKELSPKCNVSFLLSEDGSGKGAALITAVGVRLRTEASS

Hexokinase HKDC1 = target: T1, Hexokinase HKDC1 (Homo sapiens, UniProt Q2TB90); test: SAR analysis of small molecule inhibitors of hexokinase domain containing I (HKDC1). [Related pubchem assays (depositor defined):AID493160, AID493190]; assay type: functional
T1 sequence (Q2TB90 whole entry): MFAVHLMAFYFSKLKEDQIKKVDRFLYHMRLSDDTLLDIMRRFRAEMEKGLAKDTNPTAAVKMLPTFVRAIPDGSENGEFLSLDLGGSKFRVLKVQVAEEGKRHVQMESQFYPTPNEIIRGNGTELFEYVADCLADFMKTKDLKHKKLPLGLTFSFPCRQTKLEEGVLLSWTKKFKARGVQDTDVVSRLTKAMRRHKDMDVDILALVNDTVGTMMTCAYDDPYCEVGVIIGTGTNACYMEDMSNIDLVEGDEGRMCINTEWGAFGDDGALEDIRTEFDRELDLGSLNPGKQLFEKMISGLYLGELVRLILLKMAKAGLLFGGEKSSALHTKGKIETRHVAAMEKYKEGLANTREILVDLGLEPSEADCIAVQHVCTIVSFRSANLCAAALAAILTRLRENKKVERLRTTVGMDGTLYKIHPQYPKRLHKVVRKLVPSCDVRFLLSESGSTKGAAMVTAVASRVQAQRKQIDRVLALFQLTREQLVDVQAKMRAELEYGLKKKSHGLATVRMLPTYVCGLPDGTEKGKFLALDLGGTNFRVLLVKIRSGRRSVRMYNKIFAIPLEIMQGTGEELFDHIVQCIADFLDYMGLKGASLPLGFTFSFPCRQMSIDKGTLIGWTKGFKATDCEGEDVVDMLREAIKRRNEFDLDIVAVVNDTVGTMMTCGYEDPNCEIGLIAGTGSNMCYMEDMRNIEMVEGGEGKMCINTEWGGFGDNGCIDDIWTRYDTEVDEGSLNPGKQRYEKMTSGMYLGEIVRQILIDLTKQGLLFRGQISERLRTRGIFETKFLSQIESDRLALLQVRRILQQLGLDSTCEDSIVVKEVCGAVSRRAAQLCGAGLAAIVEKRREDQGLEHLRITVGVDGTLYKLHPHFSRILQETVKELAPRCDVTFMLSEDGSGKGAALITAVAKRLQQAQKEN

[6] = target: Eukaryotic translation initiation factor 4H (Homo sapiens, UniProt Q15056); test: eIF4H binding inhibition – biochemical, uHTS, fluorescence polarization, translation initiation inhibitor project, primary screen (AID 2012)
[7] = target: T2, Dual specificity protein phosphatase 3 (Homo sapiens, UniProt P51452); test: VHR1 phosphatase inhibitors, primary screen, biochemical, absorbance, uHTS (AID 1654)
T2 sequence (P51452 whole entry): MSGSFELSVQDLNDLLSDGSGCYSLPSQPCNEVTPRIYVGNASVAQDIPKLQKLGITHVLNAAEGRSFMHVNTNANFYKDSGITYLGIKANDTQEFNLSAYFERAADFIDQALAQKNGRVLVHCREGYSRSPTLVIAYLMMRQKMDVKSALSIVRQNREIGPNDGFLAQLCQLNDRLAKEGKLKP

[8] = target: T3, Voltage-gated N-type calcium channel alpha-1B subunit/Amyloid beta A4 precursor protein-binding family A member 1 (Homo sapiens, UniProt Q00975+Q02410); assay type: protein assay
T3 sequence (Q00975 whole entry): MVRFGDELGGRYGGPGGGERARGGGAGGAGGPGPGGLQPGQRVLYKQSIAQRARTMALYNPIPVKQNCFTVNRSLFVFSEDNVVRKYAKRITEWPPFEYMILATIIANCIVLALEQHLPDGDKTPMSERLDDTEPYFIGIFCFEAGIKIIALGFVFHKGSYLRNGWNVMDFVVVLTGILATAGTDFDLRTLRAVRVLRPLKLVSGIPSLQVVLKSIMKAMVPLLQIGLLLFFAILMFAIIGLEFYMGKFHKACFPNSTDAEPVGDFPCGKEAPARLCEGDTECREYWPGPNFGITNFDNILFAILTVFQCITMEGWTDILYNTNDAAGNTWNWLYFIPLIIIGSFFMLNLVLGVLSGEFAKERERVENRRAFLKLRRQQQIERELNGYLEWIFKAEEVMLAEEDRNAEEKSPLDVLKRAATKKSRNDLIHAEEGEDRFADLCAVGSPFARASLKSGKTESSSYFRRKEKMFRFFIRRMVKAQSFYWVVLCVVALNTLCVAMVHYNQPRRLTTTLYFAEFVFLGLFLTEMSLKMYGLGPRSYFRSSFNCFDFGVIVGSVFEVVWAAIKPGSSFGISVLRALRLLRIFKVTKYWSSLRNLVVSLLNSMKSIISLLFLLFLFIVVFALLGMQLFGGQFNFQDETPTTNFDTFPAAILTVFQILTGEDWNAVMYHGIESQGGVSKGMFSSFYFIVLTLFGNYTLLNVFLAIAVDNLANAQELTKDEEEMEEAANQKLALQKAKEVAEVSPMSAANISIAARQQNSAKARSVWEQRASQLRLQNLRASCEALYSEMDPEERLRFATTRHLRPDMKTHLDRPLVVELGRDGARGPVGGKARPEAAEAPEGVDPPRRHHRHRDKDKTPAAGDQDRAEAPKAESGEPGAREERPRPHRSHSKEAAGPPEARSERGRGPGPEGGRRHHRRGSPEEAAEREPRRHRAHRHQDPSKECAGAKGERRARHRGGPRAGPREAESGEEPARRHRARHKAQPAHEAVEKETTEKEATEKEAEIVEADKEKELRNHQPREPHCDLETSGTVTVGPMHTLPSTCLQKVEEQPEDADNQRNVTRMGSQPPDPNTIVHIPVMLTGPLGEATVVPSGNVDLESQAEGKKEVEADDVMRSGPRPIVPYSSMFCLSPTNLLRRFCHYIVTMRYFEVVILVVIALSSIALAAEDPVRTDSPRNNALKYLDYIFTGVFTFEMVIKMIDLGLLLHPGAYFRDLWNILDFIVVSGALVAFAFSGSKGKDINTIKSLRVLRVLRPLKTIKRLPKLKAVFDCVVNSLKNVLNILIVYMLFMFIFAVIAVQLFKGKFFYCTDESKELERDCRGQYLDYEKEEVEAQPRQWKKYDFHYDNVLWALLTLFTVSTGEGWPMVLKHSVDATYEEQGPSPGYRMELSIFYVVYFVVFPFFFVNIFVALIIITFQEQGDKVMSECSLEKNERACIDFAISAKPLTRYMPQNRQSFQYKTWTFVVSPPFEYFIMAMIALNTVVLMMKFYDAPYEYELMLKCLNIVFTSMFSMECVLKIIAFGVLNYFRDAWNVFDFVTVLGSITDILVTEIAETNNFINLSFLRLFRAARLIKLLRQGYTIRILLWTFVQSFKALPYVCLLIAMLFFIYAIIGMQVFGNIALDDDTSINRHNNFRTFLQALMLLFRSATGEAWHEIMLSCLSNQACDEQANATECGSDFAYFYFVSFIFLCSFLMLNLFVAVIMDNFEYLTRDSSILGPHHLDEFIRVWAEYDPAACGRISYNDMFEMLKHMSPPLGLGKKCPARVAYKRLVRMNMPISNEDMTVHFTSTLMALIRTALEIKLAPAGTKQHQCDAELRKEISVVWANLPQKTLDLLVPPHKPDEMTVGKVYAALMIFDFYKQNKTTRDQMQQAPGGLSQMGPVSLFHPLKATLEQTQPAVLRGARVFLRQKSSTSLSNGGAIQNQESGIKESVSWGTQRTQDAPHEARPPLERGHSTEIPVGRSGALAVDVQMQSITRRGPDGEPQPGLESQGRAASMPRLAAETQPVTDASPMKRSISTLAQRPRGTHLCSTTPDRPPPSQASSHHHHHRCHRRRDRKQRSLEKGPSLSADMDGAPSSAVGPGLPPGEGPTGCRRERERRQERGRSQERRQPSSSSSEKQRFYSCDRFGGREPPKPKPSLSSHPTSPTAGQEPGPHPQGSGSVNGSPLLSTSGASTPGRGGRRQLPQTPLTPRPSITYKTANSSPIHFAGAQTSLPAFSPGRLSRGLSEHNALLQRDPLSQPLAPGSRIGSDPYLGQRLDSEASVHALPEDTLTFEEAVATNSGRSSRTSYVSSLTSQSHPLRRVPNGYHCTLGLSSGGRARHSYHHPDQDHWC
T3 sequence (Q02410 whole entry): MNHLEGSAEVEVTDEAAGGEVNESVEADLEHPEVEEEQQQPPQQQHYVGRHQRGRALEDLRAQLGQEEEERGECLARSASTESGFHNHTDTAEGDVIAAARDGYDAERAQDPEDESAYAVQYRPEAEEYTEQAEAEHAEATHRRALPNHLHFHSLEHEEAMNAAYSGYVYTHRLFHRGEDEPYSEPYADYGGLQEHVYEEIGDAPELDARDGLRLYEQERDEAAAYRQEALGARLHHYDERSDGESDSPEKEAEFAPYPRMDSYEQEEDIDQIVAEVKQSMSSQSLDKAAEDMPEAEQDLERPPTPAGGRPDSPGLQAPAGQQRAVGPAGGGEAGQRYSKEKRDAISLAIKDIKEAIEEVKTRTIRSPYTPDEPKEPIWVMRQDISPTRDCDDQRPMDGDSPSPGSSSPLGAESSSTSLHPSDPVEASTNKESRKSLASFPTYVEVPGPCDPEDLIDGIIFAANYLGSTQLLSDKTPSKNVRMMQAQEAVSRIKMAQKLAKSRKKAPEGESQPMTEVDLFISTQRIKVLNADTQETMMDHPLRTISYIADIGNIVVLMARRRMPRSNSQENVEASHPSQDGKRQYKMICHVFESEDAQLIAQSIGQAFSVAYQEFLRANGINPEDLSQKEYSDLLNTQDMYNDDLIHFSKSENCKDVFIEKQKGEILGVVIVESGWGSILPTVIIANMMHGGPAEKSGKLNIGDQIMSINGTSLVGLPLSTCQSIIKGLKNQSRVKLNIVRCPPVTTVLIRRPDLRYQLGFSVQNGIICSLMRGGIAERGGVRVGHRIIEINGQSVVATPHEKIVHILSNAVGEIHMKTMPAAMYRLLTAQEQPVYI

Beta-galactosidase = Beta-galactosidase (Escherichia coli, UniProt Q8VNN2); test: PubChem AID 485352; assay type: functional
[9] = target: T3, Voltage-gated N-type calcium channel alpha-1B subunit/Amyloid beta A4 precursor protein-binding family A member 1; assay type: protein assay; remark: listed apart in the source
[10] = target: T4, Type-1 angiotensin II receptor (Homo sapiens, UniProt P30556); test: antagonism of angiotensin II type 1 receptor – cell-based, uHTS hits, selectivity assay for APJ receptor antagonist project, dose response (AID 463214); assay type: functional;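 further: antagonist potency against angiotensin II stimulated AT1 response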
T4 sequence (P30556 whole entry): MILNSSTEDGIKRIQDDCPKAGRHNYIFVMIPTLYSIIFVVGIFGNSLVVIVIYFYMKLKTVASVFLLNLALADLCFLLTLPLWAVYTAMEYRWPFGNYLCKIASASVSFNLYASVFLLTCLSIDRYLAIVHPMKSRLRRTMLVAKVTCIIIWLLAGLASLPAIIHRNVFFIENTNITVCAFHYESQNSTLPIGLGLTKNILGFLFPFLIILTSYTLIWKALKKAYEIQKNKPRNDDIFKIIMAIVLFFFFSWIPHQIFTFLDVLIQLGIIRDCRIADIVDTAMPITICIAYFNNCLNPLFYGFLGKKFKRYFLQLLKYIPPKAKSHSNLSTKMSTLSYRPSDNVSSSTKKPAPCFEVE

[11] = target: T2, Dual specificity protein phosphatase 3; test: VHR1 phosphatase inhibitors, biochemical (AID 1878)
[12] = target: T5, Dual specificity protein phosphatase 6 (Rattus norvegicus, UniProt Q64346); test: inhibition of rat DUSP6 enzyme activity – biochemical, in vitro, primary screen (AID 425)
T5 sequence (Q64346 whole entry): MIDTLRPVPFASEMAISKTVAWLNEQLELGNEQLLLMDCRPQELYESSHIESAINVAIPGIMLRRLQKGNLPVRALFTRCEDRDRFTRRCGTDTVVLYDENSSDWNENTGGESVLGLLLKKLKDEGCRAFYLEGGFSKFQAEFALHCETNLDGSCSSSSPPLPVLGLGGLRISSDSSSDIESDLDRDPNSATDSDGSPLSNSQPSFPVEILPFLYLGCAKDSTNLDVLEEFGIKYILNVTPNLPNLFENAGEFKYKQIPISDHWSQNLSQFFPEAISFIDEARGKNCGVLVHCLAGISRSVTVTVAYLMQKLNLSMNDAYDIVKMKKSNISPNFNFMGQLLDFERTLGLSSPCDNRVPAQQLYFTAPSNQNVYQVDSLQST

[13] = target: Polyadenylate-binding protein 1 (Homo sapiens, UniProt P11940); test: blockers of PABP interaction with poly(A) – biochemical, fluorescence polarization, […] (AID 2014)
[14] = target: Eukaryotic translation initiation factor 4E (Mus musculus, UniProt P63073); test: blockers of eIF4G binding by eIF4E – biochemical, TR-FRET, dose response (AID 855); assay type: functional;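 further: potency for disrupting eIF4E binding to eIF4GI seen as loss of FRET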
[15] = target: T6, Apoptotic protease-activating factor 1 (Homo sapiens, UniProt O14727); test: activation of Apaf-1 mediated apoptosis – fluorescent, uHTS hits, dose response (AID 588554); assay type: functional
T6 sequence (O14727 whole entry): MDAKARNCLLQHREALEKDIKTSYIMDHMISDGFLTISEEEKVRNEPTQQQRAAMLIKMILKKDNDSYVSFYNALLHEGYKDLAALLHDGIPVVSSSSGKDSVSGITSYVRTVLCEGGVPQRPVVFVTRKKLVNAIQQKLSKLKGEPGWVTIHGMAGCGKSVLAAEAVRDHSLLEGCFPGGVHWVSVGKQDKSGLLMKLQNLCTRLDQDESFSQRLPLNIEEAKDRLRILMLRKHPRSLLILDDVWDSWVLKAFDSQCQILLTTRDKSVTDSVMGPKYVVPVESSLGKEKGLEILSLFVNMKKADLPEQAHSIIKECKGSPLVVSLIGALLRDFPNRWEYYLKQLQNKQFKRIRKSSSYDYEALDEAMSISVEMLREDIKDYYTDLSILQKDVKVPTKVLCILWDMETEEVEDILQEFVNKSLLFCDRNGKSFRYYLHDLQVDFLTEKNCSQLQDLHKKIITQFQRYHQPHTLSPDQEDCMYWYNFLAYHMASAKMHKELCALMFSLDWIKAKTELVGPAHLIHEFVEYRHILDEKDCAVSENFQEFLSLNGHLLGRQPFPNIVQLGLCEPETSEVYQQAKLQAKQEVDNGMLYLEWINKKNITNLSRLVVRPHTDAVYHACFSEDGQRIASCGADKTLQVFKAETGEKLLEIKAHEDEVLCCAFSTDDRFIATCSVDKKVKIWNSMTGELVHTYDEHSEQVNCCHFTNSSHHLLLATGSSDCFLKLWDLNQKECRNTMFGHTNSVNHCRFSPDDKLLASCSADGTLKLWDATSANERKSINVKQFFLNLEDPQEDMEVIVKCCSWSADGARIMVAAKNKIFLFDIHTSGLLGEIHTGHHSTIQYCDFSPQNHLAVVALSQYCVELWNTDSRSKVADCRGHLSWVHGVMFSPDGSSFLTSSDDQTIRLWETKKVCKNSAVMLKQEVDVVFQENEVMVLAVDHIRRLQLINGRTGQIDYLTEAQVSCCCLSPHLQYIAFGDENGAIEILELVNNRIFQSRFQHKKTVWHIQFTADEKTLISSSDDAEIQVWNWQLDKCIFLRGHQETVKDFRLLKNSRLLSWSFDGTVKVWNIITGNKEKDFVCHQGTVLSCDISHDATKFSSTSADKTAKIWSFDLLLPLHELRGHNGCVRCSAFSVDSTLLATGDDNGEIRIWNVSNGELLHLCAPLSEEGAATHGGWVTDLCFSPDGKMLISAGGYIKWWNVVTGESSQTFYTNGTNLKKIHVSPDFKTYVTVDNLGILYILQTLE

[16] = target: Beta-2 adrenergic receptor (Homo sapiens, UniProt P07550); test: ADRB2 activation measured by internalization – cell-based, FAP fluorogen, flow cytometry, cherry pick 1, dose response (AID 588763); assay type: functional
Sequence of Beta-2 adrenergic receptor (P07550 whole entry): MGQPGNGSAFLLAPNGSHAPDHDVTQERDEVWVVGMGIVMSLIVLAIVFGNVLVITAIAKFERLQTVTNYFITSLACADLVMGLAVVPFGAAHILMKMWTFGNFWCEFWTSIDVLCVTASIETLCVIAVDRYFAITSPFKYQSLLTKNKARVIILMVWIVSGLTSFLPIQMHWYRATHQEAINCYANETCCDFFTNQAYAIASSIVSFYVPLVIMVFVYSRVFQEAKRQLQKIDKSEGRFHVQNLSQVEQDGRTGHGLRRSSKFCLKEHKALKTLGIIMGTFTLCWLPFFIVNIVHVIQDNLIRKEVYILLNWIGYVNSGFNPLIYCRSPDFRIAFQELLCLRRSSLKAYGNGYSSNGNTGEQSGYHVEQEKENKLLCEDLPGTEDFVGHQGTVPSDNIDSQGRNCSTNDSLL

Jurkat = test: SAR Analysis of small molecule inhibitors of […] specific antigen receptor-induced NF-kB activation in a Jurkat cell line using a luminescence assay - Set 3. [Related pubchem assays (depositor defined):AID435022, AID435025, AID465]; assay type: functional, cell-based; conditions: Homo sapiens
HEK293 [17] = test: SAR Analysis of small molecule inhibitors of B-cell specific antigen receptor-induced NF-kB activation in a HEK-293T cell line using a luminescence assay - Set 2. [Related pubchem assays (depositor defined):AID435022, AID435025, AID489021]; assay type: functional, cell-based; conditions: Homo sapiens
HEK293 [18] = test: HEK293T cell viability loss, resazurin readout – resazurin fluorescence, cytotoxicity control for NF-kB activator project, SAR follow-up (AID 493251); assay type: functional, cell-based; conditions: Homo sapiens

Structure (SMILES): Cc1ccc(C(=O)N2CCN(c3ccnc4cc(Cl)ccc34)CC2)cc1
- AC50 (Candida albicans [1]): 1.33 µM (active)
- AC50 (Candida albicans [2]): 1.78 µM (active)
- AC50 (Candida albicans [3]): 7.07 µM (active)
- AC50 (Candida albicans [4]): 31.8 µM (active)

Structure (SMILES): Cc1ccc(S(=O)(=O)N2CCOCC2)cc1NC(=O)CSc1nnc2cc(C)c3ccccc3n12
- EC50 [5]: 17.4 µM (inactive)
- IC50 (Hexokinase-1): 50.3 µM (inactive)
- IC50 (Hexokinase HKDC1): 43.2 µM (inactive)

Structure (SMILES): COc1cc(/C=C2\SC(=O)N(c3cccc(Cl)c3)C2=O)cc([N+](=O)[O-])c1O
- IC50 [6]: 4.99 µM (active)
- IC50 [7]: 3.03 µM (active)
- IC50 [8]: 3.5 µM (active)
- EC50 (Beta-galactosidase): 30.8 µM (active)
- IC50 [9]: > 50 µM (inactive)
- IC50 [10]: 27.3 µM (not active)
- IC50 [11]: 2.21 µM (active)
- IC50 [12]: > 158 µM (not active)
- IC50 [13]: > 100 µM (inactive)
- IC50 [14]: 21.9 µM (active)
- EC50 [15]: 5.8 µM (active)

Structure (SMILES): CCCCN(C(=O)c1ccc(NC(=O)C(C)C)cc1)c1ccccc1
- EC50 [16]: 0.049 µM (active)

Structure (SMILES): COc1ccccc1NC(=O)CCc1nc(-c2ccc(C(C)(C)C)cc2)no1
- IC50 (Jurkat): 0.665 µM (active)
- IC50 (HEK293 [17]): 0.44 µM (active)
- IC50 (HEK293 [18]): 56 µM (inactive)
